Values after ≈ are worked out from the molar mass of the structure shown.

The series can be described thus: Solubility of itraconazole in NMP. The class given is physicochemical. The note with it: organic solvent or mixture, room temperature (approximately 22° C.). On the procedure: Sample preparation. […] A 0.20 g/mL drug concentrate solution was prepared by dissolving 2.0 g of itraconazole and 0.2 g Poloxamer 188 in 10 mL NMP with heat and stirring. This solution was then allowed to cool to room temperature to yield a supersaturated solution. A microprecipitation experiment was immediately performed in which 1.5 mL of the drug concentrate was added to 30 mL of an aqueous solution containing 0.1% deoxycholate, 2.2% glycerol. The aqueous solution was maintained at ˜2° C. and a stir rate of 350 rpm during the addition step. The resulting presuspension was homogenized at ˜13,000 psi for approx. 10 minutes at 50° C. The suspension was then centrifuged, the supernatant decanted, and the solid crystals dried in a vacuum oven at 30° C. for 135 hours.

Regarding `CCC(C)n1ncn(-c2ccc(N3CCN(c4ccc(OCC5COC(Cn6cncn6)(c6ccc(Cl)cc6Cl)O5)cc4)CC3)cc2)c1=O` (stereo not shown) [itraconazole], the solubility (usually how much of the substance goes into solution per volume) stood at 160 mg/mL (≈ 227 mM).

The record behind these values is patent publication US8067032B2, “Method for preparing submicron particles of antineoplastic agents” (Baxter International Inc., priority 2000, dated 2011).
